From ChEMBL document CHEMBL1201862, “PubChem BioAssay data set” (2004)
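Where inhibition never reached the appropriate level, the endpoint shown equals the highest concentration tested. Otherwise, values were interpolated linearly from a five-concentration, 48-hour dose response in 96-well plates. GI50 marks 50% less growth.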 Activity calls are given as the source filed them. Rule as the data show it: active = GI50 up to about 1.1 µM and inactive = higher.

Tests used:
Assay in all cases: growth of human tumour cells (NCI), 48 h
OVCAR-8 = system: OVCAR-8
SNB-19 = system: SNB-19
UACC-62 = system: UACC-62
HCC 2998 = system: HCC 2998
LOX IMVI = system: LOX IMVI
IGROV-1 = system: IGROV-1
SR = system: SR
SNB-75 = system: SNB-75
M19-MEL = system: M19-MEL
OVCAR-3 = system: OVCAR-3
SF-268 = system: SF-268
TK-10 = system: TK-10
NCI-H23 = system: NCI-H23
U-251 = system: U-251
K562 = system: K562
M14 = system: M14
A549 = system: A549
UO-31 = system: UO-31
SF-539 = system: SF-539

| SMILES | GI50 (OVCAR-8) | GI50 (SNB-19) | GI50 (UACC-62) | GI50 (HCC 2998) | GI50 (LOX IMVI) | GI50 (IGROV-1) | GI50 (SR) | GI50 (SNB-75) | GI50 (M19-MEL) | GI50 (OVCAR-3) | GI50 (SF-268) | GI50 (TK-10) | GI50 (NCI-H23) | GI50 (U-251) | GI50 (K562) | GI50 (M14) | GI50 (A549) | GI50 (UO-31) | GI50 (SF-539) |
| --- | --- | --- | --- | --- | --- | --- | --- | --- | --- | --- | --- | --- | --- | --- | --- | --- | --- | --- | --- |
| CC[C@@H]1C[C@H]2CC3c4[nH]c5ccc(O)cc5c4CCN(C2)C31 | > 100 µM (inactive) | > 100 µM (inactive) | > 100 µM (inactive) | > 100 µM (inactive) | > 100 µM (inactive) | > 100 µM (inactive) | > 100 µM (inactive) | > 100 µM (inactive) | > 100 µM (inactive) | > 100 µM (inactive) | > 100 µM (inactive) | > 100 µM (inactive) | > 100 µM (inactive) | > 100 µM (inactive) | 99.5 µM (inactive) | > 100 µM (inactive) | > 100 µM (inactive) | > 100 µM (inactive) | > 100 µM (inactive) |
| CC1=Cc2cccc(C)c2C(=O)C1=O [O-HIBISCANONE] | 5.85 µM (inactive) | 19.8 µM (inactive) | 5.58 µM (inactive) | 14.6 µM (inactive) | 8.77 µM (inactive) | 15.6 µM (inactive) | 0.26 µM (active) | 15.8 µM (inactive) | 7.67 µM (inactive) | 4.37 µM (inactive) | 11.3 µM (inactive) | 2.39 µM (inactive) | 11.1 µM (inactive) | 10.8 µM (inactive) | 0.617 µM (active) | 4.67 µM (inactive) | 6.81 µM (inactive) | 13.9 µM (inactive) | 6.56 µM (inactive) |
| CCOc1ccccc1/N=C(/NC(=O)CC)SC | 57 µM (inactive) | > 10 µM (inactive) | > 10 µM (inactive) | > 10 µM (inactive) | > 10 µM (inactive) | > 10 µM (inactive) | > 10 µM (inactive) | 67.6 µM (inactive) | > 10 µM (inactive) | > 10 µM (inactive) | > 10 µM (inactive) | > 10 µM (inactive) | 70.5 µM (inactive) | > 10 µM (inactive) | > 10 µM (inactive) | > 10 µM (inactive) | > 10 µM (inactive) | > 10 µM (inactive) | > 10 µM (inactive) |
| O=c1/c(=C/c2ccccc2F)sc2nc3ccccc3n12 | > 100 µM (inactive) | > 100 µM (inactive) | > 100 µM (inactive) | > 100 µM (inactive) | 91 µM (inactive) | > 100 µM (inactive) | 38.3 µM (inactive) | 57.4 µM (inactive) | > 100 µM (inactive) | > 100 µM (inactive) | 61.5 µM (inactive) | > 100 µM (inactive) | > 100 µM (inactive) | 38.7 µM (inactive) | > 100 µM (inactive) | > 100 µM (inactive) | > 100 µM (inactive) | > 100 µM (inactive) | 74.3 µM (inactive) |
| O=C(CC1(O)C(=O)Nc2ccccc21)c1ccc(Cl)c(Cl)c1 (centres undefined) | – | > 100 µM (inactive) | > 100 µM (inactive) | > 100 µM (inactive) | > 100 µM (inactive) | > 100 µM (inactive) | > 100 µM (inactive) | > 100 µM (inactive) | 77.4 µM (inactive) | – | > 100 µM (inactive) | – | > 100 µM (inactive) | > 100 µM (inactive) | > 100 µM (inactive) | > 100 µM (inactive) | > 100 µM (inactive) | > 100 µM (inactive) | > 100 µM (inactive) |
| CCn1c2c(c3ccccc31)[C@@H](c1ccc(Cl)cc1)CC1C(=O)N(c3ccccc3)C(=O)C21 (some centres undefined) | > 100 µM (inactive) | > 100 µM (inactive) | 51.2 µM (inactive) | 86.9 µM (inactive) | > 100 µM (inactive) | > 100 µM (inactive) | 12.8 µM (inactive) | 71.9 µM (inactive) | > 100 µM (inactive) | 55 µM (inactive) | 77.8 µM (inactive) | > 100 µM (inactive) | 95.3 µM (inactive) | 52.6 µM (inactive) | 77.3 µM (inactive) | > 100 µM (inactive) | > 100 µM (inactive) | > 100 µM (inactive) | 31.8 µM (inactive) |
| CC1=NOC(=O)/C1=C/c1ccccc1O | > 100 µM (inactive) | > 100 µM (inactive) | > 100 µM (inactive) | > 100 µM (inactive) | > 100 µM (inactive) | > 100 µM (inactive) | > 100 µM (inactive) | > 100 µM (inactive) | > 100 µM (inactive) | > 100 µM (inactive) | > 100 µM (inactive) | > 100 µM (inactive) | > 100 µM (inactive) | > 100 µM (inactive) | > 100 µM (inactive) | > 100 µM (inactive) | > 100 µM (inactive) | > 100 µM (inactive) | > 100 µM (inactive) |
| C=CCNC(=S)N1CC(C)C(=O)Nc2cc(Cl)ccc21 (centres undefined) | > 100 µM (inactive) | > 100 µM (inactive) | > 100 µM (inactive) | – | – | > 100 µM (inactive) | > 100 µM (inactive) | > 100 µM (inactive) | > 100 µM (inactive) | – | > 100 µM (inactive) | > 100 µM (inactive) | > 100 µM (inactive) | > 100 µM (inactive) | > 100 µM (inactive) | > 100 µM (inactive) | > 100 µM (inactive) | > 100 µM (inactive) | 76 µM (inactive) |
| C/N=C1\CC2c3cc(OC)c(OC)cc3CCN2C2=C1C(=O)CC(C)(C)C2 (centres undefined) | > 100 µM (inactive) | > 100 µM (inactive) | – | > 100 µM (inactive) | > 100 µM (inactive) | – | > 100 µM (inactive) | > 100 µM (inactive) | > 100 µM (inactive) | > 100 µM (inactive) | > 100 µM (inactive) | > 100 µM (inactive) | > 100 µM (inactive) | > 100 µM (inactive) | – | – | > 100 µM (inactive) | > 100 µM (inactive) | > 100 µM (inactive) |
| Cc1nc(-c2nc(C)c(C(=O)NN(C)C)s2)sc1C(=O)NN(C)C | > 100 µM (inactive) | > 100 µM (inactive) | > 100 µM (inactive) | > 100 µM (inactive) | 23.6 µM (inactive) | > 100 µM (inactive) | 19.7 µM (inactive) | 60.3 µM (inactive) | > 100 µM (inactive) | > 100 µM (inactive) | > 100 µM (inactive) | > 100 µM (inactive) | > 100 µM (inactive) | > 100 µM (inactive) | 32.6 µM (inactive) | > 100 µM (inactive) | – | > 100 µM (inactive) | > 100 µM (inactive) |
| N#Cc1ccccc1NC(=O)C(=O)C1NC(=S)NC1=O (centres undefined) | > 100 µM (inactive) | > 100 µM (inactive) | > 100 µM (inactive) | > 100 µM (inactive) | > 100 µM (inactive) | > 100 µM (inactive) | > 100 µM (inactive) | > 100 µM (inactive) | > 100 µM (inactive) | > 100 µM (inactive) | > 100 µM (inactive) | > 100 µM (inactive) | > 100 µM (inactive) | > 100 µM (inactive) | > 100 µM (inactive) | > 100 µM (inactive) | > 100 µM (inactive) | – | > 100 µM (inactive) |
| COc1cc(/C=C2\[C@H]3c4c(c(OC)c(C)c(OC)c4OC)C[C@@H](C(=O)N2Cc2ccccc2)N3C(=O)OCC(C)C)c(OC)c(C)c1OC | > 100 µM (inactive) | > 100 µM (inactive) | > 100 µM (inactive) | > 78.9 µM (inactive) | > 100 µM (inactive) | > 77.8 µM (inactive) | 13.3 µM (inactive) | > 83.2 µM (inactive) | > 100 µM (inactive) | > 41.4 µM (inactive) | > 100 µM (inactive) | > 100 µM (inactive) | > 100 µM (inactive) | > 85.5 µM (inactive) | 42.2 µM (inactive) | > 100 µM (inactive) | > 71.1 µM (inactive) | > 100 µM (inactive) | > 100 µM (inactive) |
| COc1c(C)cc2c(C(C)C)c(O)c(O)c(C=O)c2c1O | 27.4 µM (inactive) | 35.7 µM (inactive) | 20.6 µM (inactive) | 33.9 µM (inactive) | 24 µM (inactive) | 30.5 µM (inactive) | – | 25.4 µM (inactive) | 26.5 µM (inactive) | 18.9 µM (inactive) | 38.4 µM (inactive) | 37 µM (inactive) | 18.3 µM (inactive) | 18 µM (inactive) | 17.2 µM (inactive) | 23.2 µM (inactive) | 31.7 µM (inactive) | 31.3 µM (inactive) | 17.8 µM (inactive) |
| CC1(C)CC(=O)c2c(oc3cc(O)c(O)cc23)C1 | 19.2 µM (inactive) | 82.2 µM (inactive) | 17.3 µM (inactive) | 59.4 µM (inactive) | 17.1 µM (inactive) | 40.2 µM (inactive) | 18.8 µM (inactive) | 32.8 µM (inactive) | 35.3 µM (inactive) | – | 24.3 µM (inactive) | > 100 µM (inactive) | – | 33 µM (inactive) | 24.7 µM (inactive) | 24.2 µM (inactive) | 38 µM (inactive) | 37.7 µM (inactive) | 28.6 µM (inactive) |
| CC(=O)NC(CCCCN)C(=O)NCc1ccccc1 (centres undefined) | > 100 µM (inactive) | > 100 µM (inactive) | > 100 µM (inactive) | > 100 µM (inactive) | > 100 µM (inactive) | > 100 µM (inactive) | – | 88.1 µM (inactive) | > 100 µM (inactive) | > 100 µM (inactive) | 42.1 µM (inactive) | > 100 µM (inactive) | > 100 µM (inactive) | > 100 µM (inactive) | > 100 µM (inactive) | > 100 µM (inactive) | > 100 µM (inactive) | > 100 µM (inactive) | > 100 µM (inactive) |
